Laboratory results taken from ChEMBL document CHEMBL1144863, “Novel histone deacetylase inhibitors: design, synthesis, enzyme inhibition, and binding mode study of SAHA-based non-hydroxamates” (Bioorg Med Chem Lett, 2003).

What was measured:
Histone deacetylase = assay: In vitro inhibitory activity against histone deacetylase (HDAC) isolated from HeLa nuclear extract; format: protein assay, Homo sapiens
[1] = target: Histone deacetylase (Homo sapiens) (UniProt Q13547+O15379+Q9UBN7+Q92769+Q9UQL6+Q8WUI4+Q9BY41+Q96DB2+P56524+Q9UKV0+Q969S8); settings: at 100 µM
Description: In vitro inhibitory activity against histone deacetylase (HDAC) isolated from HeLa nuclear extract at a concentration of 100 uM

Compound	IC50 (Histone deacetylase)	inhibition [1]
O=C(CBr)NCCCCCC(=O)Nc1ccccc1	17 µM	78%
NNC(=O)NCCCCCCC(=O)Nc1ccccc1	650 µM	18%
O=C(CCCCCCC(=O)Nc1ccccc1)NCCO	> 100 µM	4%
O=C(CCCCCCNC(=O)C(Cl)(Cl)Cl)Nc1ccccc1	> 100 µM	4%
O=C(CCCCCCC(=O)OCCO)Nc1ccccc1	> 100 µM	5%
NNC(=O)NCCCCCC(=O)Nc1ccccc1	150 µM	35%
NCCNC(=O)CCCCCCC(=O)Nc1ccccc1	> 100 µM	3%
C#CCN(CC#C)CCCCCCC(=O)Nc1ccccc1	> 100 µM	8%
O=C(CCCCCCNC(=O)C(F)(F)F)Nc1ccccc1	> 100 µM	3%
O=C(CBr)NCCCCCCC(=O)Nc1ccccc1	14 µM	79%
O=C(CCCCCCC(=O)Nc1ccccn1)Nc1ccccc1	> 100 µM	8%
O=C(CCCCCCC(=O)c1ccccn1)Nc1ccccc1	> 100 µM	15%
NC(=O)NCCCCCCC(=O)Nc1ccccc1	> 100 µM	7%
O=C(CCCCCCC(=O)Nc1nccs1)Nc1ccccc1	> 100 µM	9%
O=C(CCCCCC/C(=N/O)c1ccccn1)Nc1ccccc1	> 100 µM	0%
O=C(CBr)NCCCCCCCC(=O)Nc1ccccc1	300 µM	40%
O=C(CBr)NCCCCC(=O)Nc1ccccc1	121 µM	47%
COC(=O)NCCCCCCC(=O)Nc1ccccc1	> 100 µM	12%
C#CCNCCCCCCC(=O)Nc1ccccc1	> 100 µM	16%
NNC(=O)NCCCCC(=O)Nc1ccccc1	> 1000 µM	12%
CCOC(=O)NCCCCCCC(=O)Nc1ccccc1	> 100 µM	19%
Nc1ccccc1NC(=O)CCCCCCC(=O)Nc1ccccc1	120 µM	48%
